Measurements as given in ChEMBL document CHEMBL5357009, “Positive Allosteric Modulators of alpha7 Nicotinic Acetylcholine Receptor for the Treatment of Several Central Nervous System Diseases” (ACS Med Chem Lett, 2024).

Target: Neuronal acetylcholine receptor subunit alpha-7 (Homo sapiens, UniProt P36544)
Experiment: Positive allosteric modulation of human alpha7 nAChR expressed in HEK cells assessed as potentiation of acetylcholine induced peak current amplitude preincubated for 58 secs followed by acetylcholine stimulation for 1 secs by automated patch-clamp electrophysiology
Format: cell-based

Chain of Neuronal acetylcholine receptor subunit alpha-7 (P36544 whole entry): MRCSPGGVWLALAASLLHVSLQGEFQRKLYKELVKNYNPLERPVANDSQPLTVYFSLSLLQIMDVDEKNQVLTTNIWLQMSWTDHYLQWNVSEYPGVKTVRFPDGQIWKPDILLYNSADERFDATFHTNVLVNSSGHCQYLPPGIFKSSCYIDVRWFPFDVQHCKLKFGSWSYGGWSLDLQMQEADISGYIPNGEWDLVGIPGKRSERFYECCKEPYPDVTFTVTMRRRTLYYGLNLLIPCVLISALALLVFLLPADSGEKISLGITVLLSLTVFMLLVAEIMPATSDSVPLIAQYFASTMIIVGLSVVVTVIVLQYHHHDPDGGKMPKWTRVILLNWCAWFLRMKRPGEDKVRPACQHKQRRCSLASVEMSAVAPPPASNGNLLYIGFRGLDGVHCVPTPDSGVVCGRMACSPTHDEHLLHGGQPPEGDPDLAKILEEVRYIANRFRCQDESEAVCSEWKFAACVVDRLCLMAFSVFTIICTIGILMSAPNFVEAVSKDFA

| Structure (SMILES) | EC50 [nM] |
| --- | --- |
| CCOc1ccc([C@H](COC)NC(=O)C2CC23CCCc2ccccc23)cc1 (some centres undefined) | 740 |
| O=C(N[C@@H](CO)C1CCCCC1)C1CC12COc1ccc(F)cc12 (some centres undefined) | 770 |
| CCOc1ccc([C@H](COC)NC(=O)C2CC23CCc2cc(F)ccc23)cc1 (some centres undefined) | 590 |
| O=C(NC1(c2ccc(F)cc2)COC1)C1CC12CCc1ccc(F)cc12 (centres undefined) | 820 |
| CCOc1ccc([C@H](CF)NC(=O)C2CC23COc2ccc(F)cc23)cn1 (some centres undefined) | 790 |
| CCOc1ccc([C@@H](NC(=O)C2CC23COc2ccc(F)cc23)C(F)F)cn1 (some centres undefined) | 3000 |

The next lines start with the values.

| EC50 [nM] | Structure (SMILES) |
| --- | --- |
| 3200 | O=C(NC1(c2ccc(F)cc2)COC1)C1CC12CCc1ccccc12 (centres undefined) |
| 630 | O=C(N[C@@H](CO)C1CCCCC1)C1CC12COc1ccccc12 (some centres undefined) |
| 700 | CCOc1ccc([C@H](COC)NC(=O)C2CC23CCc2ccc(F)cc23)cc1 (some centres undefined) |
